{"source": "patent US20030176652A1", "about": "“Human and mouse beta-defensins, antimicrobial peptides” (priority 2001, published 2003)", "origin": "cited, not measured here", "key": {"[1]": {"system": "cells expressing the human CCR6"}, "Bacillus spp.": {"system": "Bacillus spp.", "set-up": "MIC90: unit not given beside the values"}, "Bacteroides fragilis": {"system": "Bacteroides fragilis", "set-up": "MIC50 / MIC90: unit not given beside the values"}, "[2]": {"system": "Bordetella bronchiseptica", "set-up": "MIC50 / MIC90: unit not given beside the values"}, "[3]": {"system": "Branhamella (Moraxella) catarrhalis", "conditions": "Branhamella (Moraxella) catarrhalis (β-lactamase producer)"}, "Campylobacter jejuni": {"system": "Campylobacter jejuni", "set-up": "MIC90: unit not given beside the values"}, "Campylobacter pylori": {"system": "Campylobacter pylori", "set-up": "MIC50: unit not given beside the values"}, "Enterococcus spp.": {"system": "Enterococcus spp.", "set-up": "MIC50 / MIC90: unit not given beside the values"}, "Haemophilus ducreyi": {"system": "Haemophilus ducreyi", "set-up": "unit not given beside the values"}, "Haemophilus influenzae": {"system": "Haemophilus influenzae", "set-up": "MIC50 / MIC90: unit not given beside the values"}, "[4]": {"system": "Haemophilus parainfluenzae", "set-up": "MIC50 / MIC90: unit not given beside the values"}, "Listeria monocytogenes": {"system": "Listeria monocytogenes", "set-up": "unit not given beside the values"}, "Neisseria gonorrhoeae": {"system": "Neisseria gonorrhoeae", "set-up": "MIC90: unit not given beside the values"}, "Neisseria meningitidis": {"system": "Neisseria meningitidis", "set-up": "MIC50 / MIC90: unit not given beside the values"}, "Nocardia asteroides": {"system": "Nocardia asteroides", "set-up": "MIC50 / MIC90: unit not given beside the values"}, "Staphylococcus aureus [5]": {"system": "Staphylococcus aureus", "set-up": "MIC50 / MIC90: unit not given beside the values"}, "[6]": {"system": "Staphylococcus epidermidis", "set-up": "unit not given beside the values"}, "[7]": {"system": "Staphylococcus haemolyticus"}, "Staphylococcus hominis": {"system": "Staphylococcus hominis", "set-up": "unit not given beside the values"}, "Streptococcus agalactiae": {"system": "Streptococcus agalactiae", "set-up": "MIC50 / MIC90: unit not given beside the values"}, "Streptococcus pyogenes": {"system": "Streptococcus pyogenes", "set-up": "unit not given beside the values"}, "Streptococcus spp.": {"system": "Streptococcus spp.", "set-up": "unit not given beside the values"}, "Mycoplasma hominis": {"system": "Mycoplasma hominis", "set-up": "MIC50 / MIC90: unit not given beside the values"}, "Staphylococcus aureus [8]": {"system": "Staphylococcus aureus", "conditions": "physiological salt concentrations"}, "[9]": {"conditions": "Haemophilus influenzae (non β-lactamase producer)"}, "[10]": {"conditions": "Haemophilus influenzae (penicillin resistant)"}, "[11]": {"conditions": "Haemophilus influenzae (penicillin susceptible)"}, "[12]": {"conditions": "Haemophilus influenzae (β-lactamase producer)"}, "[13]": {"conditions": "Neisseria gonorrhoeae (non β-lactamase producer)"}, "[14]": {"conditions": "Staphylococcus aureus (methicillin resistant)"}, "[15]": {"conditions": "Staphylococcus aureus (penicillin resistant)"}, "[16]": {"conditions": "Staphylococcus aureus (penicillin susceptible)"}}, "note": "Values joined by “and” are separate entries in the source; they are usually repeats but may differ in a detail not shown here. Identical values can stand only once. Like-named read-outs stand apart in the source and are kept apart here. Where no end group is shown, it is not given here.", "data": [{"molecule": "HBD-1: known human β-defensin peptide, product of DEFB1 (DHYNCVSSGGQCLYSACPIFTKIQGTCYRGKAKCCK; not fully specified (bridges); cysteine pairing not given here; UniProt P60022 33-68, looked up)", "values": [{"measurement": "chemotaxis of cells expressing the human CCR6", "setting": "[1]", "value": "selectively chemotactic"}]}, {"molecule": "CC[C@H]1OC(=O)[C@H](C)[C@@H](O[C@H]2C[C@@](C)(OC)[C@@H](O)[C@H](C)O2)[C@H](C)[C@@H](O[C@@H]2O[C@H](C)C[C@H](N(C)C)[C@H]2O)[C@](C)(O)C[C@@H](C)C(=O)[C@H](C)[C@@H](O)[C@]1(C)O", "note": "[ERYTHROMYCIN, erythromycin]", "values": [{"measurement": "MIC90", "setting": "Bacillus spp.", "value": 2}, {"measurement": "Range", "setting": "Bacillus spp.", "value": "0.03-2"}, {"measurement": "MIC50", "setting": "Bacteroides fragilis", "value": 1}, {"measurement": "MIC90", "setting": "Bacteroides fragilis", "value": 8}, {"measurement": "Range", "setting": "Bacteroides fragilis", "value": "0.25-16"}, {"measurement": "MIC50", "setting": "[2]", "value": 8}, {"measurement": "MIC90", "setting": "[2]", "value": 32}, {"measurement": "Range", "setting": "[2]", "value": "4-32"}, {"measurement": "MIC50", "setting": "Borrelia burgdorferi", "value": 0.03}, {"measurement": "MIC90", "setting": "Borrelia burgdorferi", "value": 0.06}, {"measurement": "Range", "setting": "[3]", "value": "0.06-1 and 0.03-0.25 and 0.06-8"}, {"measurement": "MIC90", "setting": "Campylobacter jejuni", "value": "4 and 2"}, {"measurement": "Range", "setting": "Campylobacter jejuni", "value": "0.5-8"}, {"measurement": "MIC50", "setting": "Campylobacter pylori", "value": 0.5}, {"measurement": "Range", "setting": "Campylobacter pylori", "value": "0.25-16"}, {"measurement": "MIC50", "setting": "Corynebacterium JK", "value": 2}, {"measurement": "MIC90", "setting": "Corynebacterium JK", "value": 64}, {"measurement": "MIC50", "setting": "Enterococcus faecium", "value": 1}, {"measurement": "MIC90", "setting": "Enterococcus faecium", "value": 64}, {"measurement": "Range", "setting": "Enterococcus faecium", "value": "0.06-64"}, {"measurement": "MIC50", "setting": "Enterococcus spp.", "value": 2}, {"measurement": "MIC90", "setting": "Enterococcus spp.", "value": 32}, {"measurement": "Range", "setting": "Enterococcus spp.", "value": "0.06-32"}, {"measurement": "MIC50", "setting": "Haemophilus ducreyi", "value": 0.004}, {"measurement": "MIC90", "setting": "Haemophilus ducreyi", "value": 0.06}, {"measurement": "MIC50", "setting": "Haemophilus influenzae; Haemophilus influenzae", "value": "2 and 1"}, {"measurement": "MIC90", "setting": "Haemophilus influenzae; Haemophilus influenzae", "value": "2 and 4"}, {"measurement": "Range", "setting": "Haemophilus influenzae; Haemophilus influenzae", "value": "0.5-8 and 0.25-16"}, {"measurement": "MIC50", "setting": "Haemophilus influenzae; [9]", "value": "2 and 4"}, {"measurement": "MIC90", "setting": "Haemophilus influenzae; [9]", "value": "4 and 8"}, {"measurement": "Range", "setting": "Haemophilus influenzae; [9]", "value": "0.06-8"}, {"measurement": "MIC50", "setting": "Haemophilus influenzae; [10]", "value": 8}, {"measurement": "MIC90", "setting": "Haemophilus influenzae; [10]", "value": 16}, {"measurement": "Range", "setting": "Haemophilus influenzae; [10]", "value": "8-16"}, {"measurement": "MIC50", "setting": "Haemophilus influenzae; [11]", "value": 8}, {"measurement": "MIC90", "setting": "Haemophilus influenzae; [11]", "value": 16}, {"measurement": "Range", "setting": "Haemophilus influenzae; [11]", "value": "0.25-16"}, {"measurement": "MIC50", "setting": "Haemophilus influenzae; [12]", "value": "4 and 2"}, {"measurement": "MIC90", "setting": "Haemophilus influenzae; [12]", "value": "8 and 4"}, {"measurement": "MIC50", "setting": "[4]", "value": 2}, {"measurement": "MIC90", "setting": "[4]", "value": 4}, {"measurement": "Range", "setting": "[4]", "value": "0.5-8"}, {"measurement": "MIC50", "setting": "Listeria monocytogenes", "value": 0.5}, {"measurement": "MIC90", "setting": "Neisseria gonorrhoeae; Neisseria gonorrhoeae", "value": 1}, {"measurement": "Range", "setting": "Neisseria gonorrhoeae; Neisseria gonorrhoeae", "value": "0.0075-8"}, {"measurement": "MIC90", "setting": "Neisseria gonorrhoeae; [13]", "value": "2 and 1"}, {"measurement": "Range", "setting": "Neisseria gonorrhoeae; [13]", "value": "0.015-4 and 0.03-2"}, {"measurement": "MIC90", "setting": "Neisseria gonorrhoeae; Neisseria gonorrhoeae (β-lactamase producer)", "value": "2 and 4"}, {"measurement": "MIC50", "setting": "Neisseria meningitidis", "value": 1}, {"measurement": "MIC90", "setting": "Neisseria meningitidis", "value": 8}, {"measurement": "Range", "setting": "Neisseria meningitidis", "value": "0.5-8"}, {"measurement": "MIC50", "setting": "Nocardia asteroides", "value": 8}, {"measurement": "MIC90", "setting": "Nocardia asteroides", "value": 8}, {"measurement": "Range", "setting": "Nocardia asteroides", "value": "0.25-8"}, {"measurement": "MIC50", "setting": "Staphylococcus aureus [5]; Staphylococcus aureus", "value": 0.5}, {"measurement": "MIC50", "setting": "Staphylococcus aureus [5]; [14]", "value": "64 and 32"}, {"measurement": "MIC90", "setting": "Staphylococcus aureus [5]; [14]", "value": "64 and 32"}, {"measurement": "MIC50", "setting": "Staphylococcus aureus [5]; Staphylococcus aureus (methicillin susceptible)", "value": 0.5}, {"measurement": "MIC90", "setting": "Staphylococcus aureus [5]; [15]", "value": 32}, {"measurement": "Range", "setting": "Staphylococcus aureus [5]; [15]", "value": "0.25-32"}, {"measurement": "MIC50", "setting": "Staphylococcus aureus [5]; [16]", "value": 0.5}, {"measurement": "MIC90", "setting": "Staphylococcus aureus [5]; [16]", "value": 0.5}, {"measurement": "Range", "setting": "Staphylococcus aureus [5]; [16]", "value": "0.06-32"}, {"measurement": "MIC50", "setting": "[6]", "value": 64}, {"measurement": "MIC90", "setting": "[6]", "value": 64}, {"measurement": "MIC50", "setting": "[7]", "value": 64}, {"measurement": "MIC90", "setting": "[7]", "value": 64}, {"measurement": "MIC50", "setting": "Staphylococcus hominis", "value": 64}, {"measurement": "MIC90", "setting": "Staphylococcus hominis", "value": 64}, {"measurement": "MIC50", "setting": "Streptococcus agalactiae", "value": 0.03}, {"measurement": "MIC90", "setting": "Streptococcus agalactiae", "value": 0.03}, {"measurement": "Range", "setting": "Streptococcus agalactiae", "value": "0.03-0.25 and 0.015-0.06"}, {"measurement": "MIC50", "setting": "Streptococcus pneumoniae", "value": "0.06 and 0.03"}, {"measurement": "MIC90", "setting": "Streptococcus pneumoniae", "value": "0.03 and 0.06"}, {"measurement": "Range", "setting": "Streptococcus pneumoniae", "value": "0.03-0.25 and 0.015-0.06 and 0.015-0.25"}, {"measurement": "MIC50", "setting": "Streptococcus pyogenes", "value": "0.06 and 0.03"}, {"measurement": "MIC50", "setting": "Streptococcus spp.", "value": 0.03}, {"measurement": "MIC90", "setting": "Ureaplasma urealyticum", "value": 32}]}, {"molecule": "CCC[C@@H]1C[C@@H](C(=O)N[C@@H]([C@H]2O[C@H](SC)[C@H](O)[C@@H](O)[C@H]2O)[C@@H](C)O)N(C)C1", "note": "[LINCOMYCIN, lincomycin]", "values": [{"measurement": "MIC50", "setting": "Mycoplasma hominis", "value": 2}, {"measurement": "MIC90", "setting": "Mycoplasma hominis", "value": 4}, {"measurement": "Range", "setting": "Mycoplasma hominis", "value": "0.5-16"}, {"measurement": "MIC50", "setting": "Mycoplasma pneumoniae", "value": 8}, {"measurement": "MIC90", "setting": "Mycoplasma pneumoniae", "value": 32}, {"measurement": "Range", "setting": "Mycoplasma pneumoniae", "value": "2-32"}, {"measurement": "MIC50", "setting": "Staphylococcus aureus [5]; Staphylococcus aureus", "value": 1}, {"measurement": "MIC90", "setting": "Staphylococcus aureus [5]; Staphylococcus aureus", "value": 1}, {"measurement": "Range", "setting": "Staphylococcus aureus [5]; Staphylococcus aureus", "value": "0.5-512"}, {"measurement": "MIC50", "setting": "Ureaplasma urealyticum", "value": 128}, {"measurement": "MIC90", "setting": "Ureaplasma urealyticum", "value": 128}, {"measurement": "Range", "setting": "Ureaplasma urealyticum", "value": "64-128"}]}, {"molecule": "DEFB3: protein encoded by the known human β-defensin gene DEFB3 (GIINTLQKYYCRVRGGRCAVLSCLPKEEQIGKCSTRGRKCCRRKK; not fully specified (bridges); cysteine pairing not given here; UniProt P81534 23-67, looked up)", "values": [{"measurement": "salt sensitivity of bactericidal activity against Staphylococcus aureus", "setting": "Staphylococcus aureus [8]", "value": "not salt-sensitive"}]}, {"molecule": "CCL20: the only reported chemokine ligand for CCR6", "values": [{"measurement": "chemokine activity relative to HBD-1 and HBD-2", "setting": "[1]; greater than that of HBD-1 and HBD-2", "value": "approximately 10 fold"}]}, {"molecule": "HBD-2: HBD-2 protein encoded by the DEFB2 gene (GIGDPVTCLKSGAICHPVFCPRRYKQIGTCGLPGTKCCKKP; UniProt O15263 24-64, looked up)", "values": [{"measurement": "chemotaxis of cells expressing the human CCR6", "setting": "[1]", "value": "selectively chemotactic"}, {"measurement": "histamine release from mast cells", "setting": "mast cells", "value": "stimulates mast cells to release histamine"}]}]}
